Data set [1] deals with mitochondria in CCCP-treated hMSCs. In words: Effects of CCCP on uptake of dyes. Particulars: for specificity to mitochondria after CCCP treatment / uptake / imaging signal (sensitivity) after CCCP treatment: hMSCs pre-treated with 10 μM CCCP for 30 min, 5 μM dye, 25 nM MT, 25 min. Type of data set: cell-based, human. From the text:
Mitochondria can continuously oxidize substrates and maintain a proton gradient across the lipid bilayer with very large membrane potential (−180 mV). The membrane potential as the major driving force enables the entrance and accumulation of the cationic species into mitochondria rather than cell plasma. CCCP is an uncoupler that causes rapid acidification of mitochondria and dysfunction of ATP synthase resulting in the decrease of mitochondrial membranes potential. To confirm the tolerances of MC-Mito1 and MC-Mito2, carbonyl cyanide m-chlorophenylhydrazone (CCCP) was used to treat the cells prior to the staining procedure.
It was expected because CCCP-induced decrease of membranes potential will severely affect the direction and accumulation of cationic mitochondrial probes. The most of commercial mitochondrial probes are suffered by the similar limitation. […] Compared with MC-Mito1, MC-Mito2 has longer hydrophobic linker between the flavone dye and the cation. Since mitochondrial membrane is composed of phospholipid bilayers and proteins, the stronger lipophilicity has been supposed to play an important role in retaining the specificity of MC-Mito2 in CCCP-treated cells.
The hMSCs were treated with 10 μM carbonyl cyanide m-chlorophenylhydrazone (CCCP) for 30 min. and then were washed with fresh medium. After that, the cells were incubated with 5 μM MC-Mito1 and 25 nM MT, 5 μM MC-Mito2 and 25 nM MT for 25 min at 37° C., respectively. After staining, the cells were imaged by microscope without PBS solution washing procedure.

For data set [2], the system named is mitochondria in hMSCs. Kind of data set: Co-staining with Mitotracker red CMXRos (subcellular distribution). Type of data set: cell-based, human. To be noted: 5 μM dye and 25 nM MT, 25 min. The method, then: To determine the subcellular distribution of the probes in living cells, the MT were co-incubated with MC-Mito1 and MC-Mito2, respectively. […] Despite that the decrease of membranes potential will severely affect the direction and accumulation of cationic mitochondrial probes.
Human mesenchymal stem cells (hMSCs) (Lonza, Walkersville, Md.) were cultured in serum-containing MSCBM medium (Lonza) supplemented with MSCGM SingleQuots (Lonza) according to manufacturer's specifications. hMSCs (Passage 5) were seeded at a density of 5.0×10^4 cell/cm^2. For co-staining experiments, the hMSCs were seeded on 12-well plate, cultured in MSCBM medium (Lonza) supplemented with MSCGM SingleQuots (Lonza), and incubated with 5 μM MC and 25 nM Mitotracker® red CMXRos (MT), 5 μM MC-Br and 25 nM MT, 5 μM MC-Mito1 and 25 nM MT, 5 μM MC-Mito2 and 25 nM MT for 25 min at 37° C., respectively. Each well contains 1 ml of medium and 0.05 ml DMSO (dissolving probe). The cell imaging was obtained on a Zeiss inverted fluorescence microscopy with X-Cite Series 120Q. The blue channel filter: excitation 365 nm, beam splitter FT 395 nm, emission 445/50 nm. The green channel filter: excitation 450-490 nm, beam splitter FT 510 nm, emission 515-565 nm. The red channel filter: excitation 587/25 nm, beam splitter FT 605 nm, emission 647/70 nm.

In data set [3] the target is bovine serum albumin (BSA) (Bos taurus, UniProt P02769). In words: Fluorescence response upon addition of bovine serum albumin. Type of data set: binding. Particulars: 2 equivalents of BSA; 2 μM probe, 1 mM HEPES buffer (1% DMSO); at 495 nm (MC-Mito1) / 490 nm (MC-Mito2). The method, then: FIG. 4B provides a graph showing the fluorescence intensity changes of MC-Mito1 in the presence of increasing concentrations of BSA in 1 mM HEPES buffer (1% DMSO). [MC-Mito1]=[MC-Mito2]=2 μM, [BSA]=0˜4 μM. λex=400 nm.
Chain of bovine serum albumin (BSA) (P02769 25-607): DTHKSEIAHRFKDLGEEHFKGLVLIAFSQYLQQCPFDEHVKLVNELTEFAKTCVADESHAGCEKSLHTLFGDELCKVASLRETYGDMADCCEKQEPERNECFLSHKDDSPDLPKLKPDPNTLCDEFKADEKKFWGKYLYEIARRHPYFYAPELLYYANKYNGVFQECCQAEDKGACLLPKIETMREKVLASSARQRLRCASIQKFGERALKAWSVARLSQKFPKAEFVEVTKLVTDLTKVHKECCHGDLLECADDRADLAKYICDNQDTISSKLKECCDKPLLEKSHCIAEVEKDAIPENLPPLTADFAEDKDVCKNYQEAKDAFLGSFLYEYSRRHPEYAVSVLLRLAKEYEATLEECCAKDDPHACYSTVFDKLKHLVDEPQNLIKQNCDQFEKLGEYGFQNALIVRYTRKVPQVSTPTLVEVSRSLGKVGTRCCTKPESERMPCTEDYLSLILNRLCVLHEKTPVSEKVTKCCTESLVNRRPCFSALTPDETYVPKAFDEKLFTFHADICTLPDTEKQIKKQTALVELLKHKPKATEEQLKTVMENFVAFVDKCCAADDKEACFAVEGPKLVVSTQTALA
FIG. 11 is a chart showing fluorescence spectra of DMAF ([DMAF]=10 μM, 1 mM HEPES buffer containing 1% DMSO, pH=7.4) upon addition of different concentration of BSA ([BSA]=0-10 μM, 1 mM HEPES).
MC-Mito1 and MC-Mito2 were nearly non-fluorescent in water (QYs <1%), due to specific H-bonding interaction of water solvents with H-bond acceptor carbonyl groups in flavone skeleton. However, upon addition of bovine serum albumin (BSA) into probe water solution, the fluorescence intensity increased sharply (FIG. 4A-D). After addition of 2 equivalent of BSA, the fluorescence intensity of MC-Mito1 at 495 nm was enhanced by about 17-fold, which was accompanied with a large blue-shift (from 540 nm to 495 nm, FIGS. 4A and 4B). […] By using rhodamine 6G in ethanol (QY=95%) as a reference, the fluorescence quantum yield (QY) of MC-Mito1 and MC-Mito2 were determined to be 28% and 33%, respectively. […] The high signal-to-noise ratio (>10) enables the simple wash-free in vivo fluorescence imaging. […]

A short description of data set [4]: UV absorption and fluorescence spectra of the dyes. To be noted: for Stokes shift: in DMSO; for absorption maxima / emission maxima: in DMSO solution.
The test system of data set [5] is hMSCs. Kind of data set: Cytotoxicity determined by MTT method. It counts as cell-based, human. To be noted: for cell viability: hMSCs, 0, 2, 5, 10 μM, 24 h. How it is done: Before the application for cell imaging, the cytotoxicity of MC-Mito1 and MC-Mito2 were evaluated by the widely used MTT assay to evaluate the tolerance of sensors to their working concentrations. The samples were incubated with 0, 2, 5, 10 μM MC-Mito1, MC-Mito2 and Mitotracker® red CMXRos (MT) for 24 h, respectively (FIG. 5). […] In contrast, only less than 10% of the cells were viable after incubation with 5 μM of commercial mitochondrial dye MT for 24 hours. […] The hMSCs were seeded in 12-well plates at a density of 5.0×10^4 cell/cm^2. After 24 h incubation, the cells were exposed to a series of doses of probe MC-Mito1 or MC-Mito2, and MT at 37° C. The concentration of MT (0, 2, 5, 10 μM) was similar as reported in literature.^28 After 24 hours, MTT solution (sigma) was added and kept 3 h in the incubator. MTT solubilization solution was then added into each well and the plate was gently shaken for 10 min at room temperature. The absorbance of MTT in the sample well was determined by subtracting the absorbance of the sample well from corresponding control well. Cell viability was expressed by the ratio of the absorbance of MTT in the sample wells to that of the cells incubated with culture medium only.

Data set [6] in a line: Fluorescence quantum yield (rhodamine 6G standard). Type of data set: physicochemical. Particulars: rhodamine 6G in ethanol as reference; reported after BSA addition experiment. From the text:
The fluorescence quantum yields were obtained using rhodamine 6G (sigma) as the standard (Φfl=0.95, ethanol). The fluorescence quantum yields can be calculated by using the following Eq: Φs=Φr×(Ar×ns^2×Fs)/(As×nr^2×Fr) where the subscripts s and r refer to the sample and the standard, respectively. Φ is the quantum yield, F is the integrated emission intensity, A is the absorbance, and n is the refractive index. Zebrafish Breeding and Imaging

Data set [7] concerns hMSCs. Kind of data set: Cell staining efficiency without washing process. It counts as cell-based, human. How it is done:
To assess their cell staining efficiencies, the hMSCs cells were incubated with MT, MC-Mito1 and MC-Mito2, respectively. Cell staining was continuously recorded in 3 min, 10 min and 25 min without washing process. It was found MC-Mito1 and MC-Mito2 quickly stained the living cells in 10 mins. In contrast, the MT acquired longer time to efficiently stain cells. The fluorescence signal of MC-Mito1 and MC-Mito2 from the ‘blue channel’ on fluorescence microscope (420-470 nm) were confined in cells with a negligible background signal from the culture medium, supporting the hypothesis that the flavone dyes gave higher emission in low-polar environment. Generally, the S/N ratios in fluorescent images were above 3, which could be considered acceptable for the discrimination of mitochondria. Therefore, this wash-free method could be a useful probe for real-time monitor of mitochondrial changes.
Human mesenchymal stem cells (hMSCs) (Lonza, Walkersville, Md.) were cultured in serum-containing MSCBM medium (Lonza) supplemented with MSCGM SingleQuots (Lonza) according to manufacturer's specifications. hMSCs (Passage 5) were seeded at a density of 5.0×10^4 cell/cm^2. […] The cell imaging was obtained on a Zeiss inverted fluorescence microscopy with X-Cite Series 120Q. […]

As to `N#CC(C#N)=NNc1cccc(Cl)c1` [CCCP, carbonyl cyanide m-chlorophenylhydrazone, reference compound], in data set [1] (hMSCs, 10 μM CCCP for 30 min), the mitochondrial morphology result is “mostly transformed to small and dispersed fragments”.
Turning to `O=c1c(O)c(-c2ccc(N3CCOCC3)cc2)oc2ccccc12` [MC, 3-hydroxy-2-(4-morpholinophenyl)-4H-chromen-4-one], the “co-localization with MT (mitochondria)” value in data set [2] is “almost no co-localization with MT”.
On the same count and under the same terms, the value for `O=c1c(OCCCCCCBr)c(-c2ccc(N3CCOCC3)cc2)oc2ccccc12` [MC-Br, 3-(6-bromohexyloxy)-2-(4-morpholinophenyl)-4H-chromen-4-one] was “almost no co-localization with MT”.
Take `O=c1c(OCCC[P+](c2ccccc2)(c2ccccc2)c2ccccc2)c(-c2ccc(N3CCOCC3)cc2)oc2ccccc12.[Br-]` [MC-Mito1, (3-(2-(4-morpholinophenyl)-4-oxo-4H-chromen-3-yloxy)propyl)triphenylphosphonium bromide]: the fluorescence intensity enhancement entry in data set [3] is listed as “about 17 fold”. Further, in data set [2], the “co-localization with MT (mitochondria)” value is “matched those stained with MT (red channel) very well”. In data set [4], the Stokes shift is listed as about 127 nm, the absorption maxima was 373 nm and the emission maxima worked out at 500 nm. In addition, in data set [1], the “specificity to mitochondria after CCCP treatment” value (“specificity to mitochondria” below) is recorded as “almost no more specificity to mitochondria” and the “uptake / imaging signal (sensitivity) after CCCP treatment” value (“uptake / imaging signal (sensitivity)” for short) was “extremely weaker imaging signal than that in normal cells”. This compound also had a cell viability in data set [5] of about 100%. The “fluorescence quantum yield (QY)” value in data set [6] is 28%.
Take `O=c1c(OCCCCCC[P+](c2ccccc2)(c2ccccc2)c2ccccc2)c(-c2ccc(N3CCOCC3)cc2)oc2ccccc12.[Br-]` [MC-Mito2, (6-(2-(4-morpholinophenyl)-4-oxo-4H-chromen-3-yloxy)hexyl)triphenylphosphonium bromide]: the fluorescence intensity enhancement entry in data set [3] is “about 55 fold”. The “co-localization with MT (mitochondria)” value in data set [2] was “matched well with MT”. In addition, in data set [4], the Stokes shift is listed as about 127 nm, the absorption maxima amounted to 373 nm and the emission maxima worked out at 500 nm. In addition, in data set [1], the “specificity to mitochondria” value is on record as “perfectly retained” and the “uptake / imaging signal (sensitivity)” value is “perfectly retained”. In addition, the cell viability in data set [5] is reported as about 100%. In addition, the “fluorescence quantum yield (QY)” value in data set [6] was 33%.
Take `ClCc1ccc(C2=c3cc4c5c(c3Oc3c2cc2c6c3CCCN6CCC2)CCC[N+]=5CCC4)cc1.[Cl-]` [MT, reference compound]: the “time to stain living cells” value in data set [7] is “longer time”. Besides, in data set [1], the “specificity to mitochondria” value is on record as “specificity became worse” and the “uptake / imaging signal (sensitivity)” value is “decreased by more than half”. In data set [5] (hMSCs, 5 μM, 24 hours), the viable cells entry is given as “less than 10%”.

These data come from patent US10264976B2, “Biocompatible flavonoid compounds for organelle and cell imaging” (The University of Akron, priority 2015, dated 2019).
